Key:
[1] = target: T1, tethered GluA2flip(Q)-stargazin (A2Q-stg cells) (Rattus norvegicus, UniProt P19491); experiment: Calcium flux (Fluo-8) glutamate potency fold-shift assay on A2Q-stg cells; assay type: cell-based; details: 30 μM compound
Method: (§1) In this assay, a maximal dose (30 μM) of each compound (Fig 4Di) was incubated on cells for 120 secs and then a CRC for glutamate ranging from 4 mM to 10 pM was collected (Fig 4Dii). A rightward shift of the CRC for glutamate to a higher EC50 indicates NAM activity and a leftward shift to a lower EC50 indicates PAM activity (Fig 4E). […] These compounds, considered active, were then evaluated as a CRC of the compounds in the calcium flux assay.

[2] = target: T2, GluA2flip(Q)-CNIH3 (A2Q-C3 cells) (Homo sapiens, UniProt P42262); experiment: Calcium flux (Fluo-8) glutamate potency fold-shift assay on A2Q-C3 cells; assay type: cell-based; set-up: FLAG (C); expressed in transfected cells; details: 30 μM compound
T2 sequence (P42262 25-883 isoform P42262-2 limits assumed): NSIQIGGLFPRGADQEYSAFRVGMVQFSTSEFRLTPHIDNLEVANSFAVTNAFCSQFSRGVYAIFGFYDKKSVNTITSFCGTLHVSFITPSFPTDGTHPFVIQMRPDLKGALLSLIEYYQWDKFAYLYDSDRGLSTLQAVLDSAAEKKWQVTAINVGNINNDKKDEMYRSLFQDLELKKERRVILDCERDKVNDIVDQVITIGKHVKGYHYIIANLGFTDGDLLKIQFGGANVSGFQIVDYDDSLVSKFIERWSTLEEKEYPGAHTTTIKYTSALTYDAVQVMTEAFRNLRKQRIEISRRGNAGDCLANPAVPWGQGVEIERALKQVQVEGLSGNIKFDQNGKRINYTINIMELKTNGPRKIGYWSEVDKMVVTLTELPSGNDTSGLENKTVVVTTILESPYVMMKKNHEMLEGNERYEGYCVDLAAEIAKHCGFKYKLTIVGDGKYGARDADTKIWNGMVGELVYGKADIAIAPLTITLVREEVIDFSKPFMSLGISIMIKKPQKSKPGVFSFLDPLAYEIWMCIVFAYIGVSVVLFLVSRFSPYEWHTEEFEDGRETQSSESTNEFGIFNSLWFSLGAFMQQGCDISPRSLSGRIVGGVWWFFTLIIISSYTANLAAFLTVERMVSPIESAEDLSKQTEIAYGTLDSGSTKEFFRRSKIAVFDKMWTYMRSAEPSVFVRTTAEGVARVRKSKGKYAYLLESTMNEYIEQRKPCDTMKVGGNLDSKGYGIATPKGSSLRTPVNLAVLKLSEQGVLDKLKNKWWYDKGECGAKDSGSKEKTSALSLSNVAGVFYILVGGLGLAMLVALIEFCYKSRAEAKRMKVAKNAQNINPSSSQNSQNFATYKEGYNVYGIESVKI
T2 sequence (Q8TBE1 whole entry partner): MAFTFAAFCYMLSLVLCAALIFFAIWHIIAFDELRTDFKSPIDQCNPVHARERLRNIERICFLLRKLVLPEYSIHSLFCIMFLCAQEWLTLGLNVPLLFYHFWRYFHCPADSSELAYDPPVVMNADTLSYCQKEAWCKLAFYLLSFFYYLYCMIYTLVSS
Method: as §1

[3] = target: GluA2flip(R)-stargazin (A2R-stg TetON HEK293 cells) (Homo sapiens, UniProt P42262, Q607R); experiment: Voltage-sensitive dye (VSD) assay (primary screen, counter-screen, CRC) on A2R-stg cells; details: for concentration at which PAM/NAM activity is evident in raw VSD traces, A2R-stg: raw VSD data
Chain of GluA2flip(R)-stargazin (A2R-stg TetON HEK293 cells) (P42262 25-883 isoform P42262-2 Q607R limits assumed): as the sequence (P42262 25-883 isoform P42262-2 limits assumed) above, with Q583R counted along it
Chain of GluA2flip(R)-stargazin (A2R-stg TetON HEK293 cells) (Q9Y698 whole entry partner): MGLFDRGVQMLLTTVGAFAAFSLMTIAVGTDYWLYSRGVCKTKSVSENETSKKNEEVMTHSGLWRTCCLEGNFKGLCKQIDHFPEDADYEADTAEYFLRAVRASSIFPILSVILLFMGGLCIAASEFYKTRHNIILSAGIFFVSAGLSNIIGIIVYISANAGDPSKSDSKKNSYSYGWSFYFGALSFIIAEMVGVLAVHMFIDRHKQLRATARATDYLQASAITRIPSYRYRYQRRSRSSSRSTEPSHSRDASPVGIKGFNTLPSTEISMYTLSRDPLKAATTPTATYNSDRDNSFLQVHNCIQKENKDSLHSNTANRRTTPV
Method: Cell lines used in the VSD assays were TetON HEK293 cells. […] We used GluA2flip(R) TetON HEK cell clone #4 that doxycycline (DOX) dependently expresses GluA2flip(R) (A2R). The A2R cells were used as the base cell line to derive cell lines that co-express auxiliary subunits.
(§3) Greiner 384-pp round-bottom plates containing glutamate for the second add were dispensed by hand using a multi-channel pipet at 5X final concentration. A2R-stg cells were plated in 384-well BD PureCoat amine-coated plates (Corning Life Sciences) at 16k cells/well in DMEM medium supplemented with 10% heat-inactivated FBS and 100U/mL PenStrep antibiotic. […] Cells were incubated overnight (O/N) and washed 4 times in HBSS containing 20 mM HEPES, pH 7.4, on an ELX405CW liquid aspirator and dispenser (BioTek). Buffer was left in the wells and an equal amount of 2X FLIPR dye solution was added and incubated on the cells at room temperature for 45 min. Fluorescence signal was collected at 1 Hz using Ex. 480±20 nm/Em. 540±40 nm on a Hamamatsu Functional Drug Screening System 6000 (FDSS). Baseline signal was collected for 10 seconds followed by addition of 10 μl of 5X compound for a final concentration of 10 μM.
Hits were selected from this initial screen using 4 different criteria, which we termed CMPDslope, CMPDmaxmin, GLUslope, and GLUmaxmin. […] GLUslope is the fitted slope of the increase in fluorescence within 10 sec after adding glutamate. GLUmaxmin is the difference in the minimum and maximum value in fluorescence signal reached in the 100 sec window after adding glutamate. Compounds were classified as hits if they differed by 3 standard deviations of the mean for each criterion. Tier 1 hits were classified as those that hit in the GLUslope, GLUmaxmin, and CMPDmaxmin windows. Tier 2 hits were classified as compounds that hit in the GLUslope window and either the GLUmaxmin or CMPDmaxmin window. Tier 3 hits were classified as those that hit in only the GLUslope or the GLUmaxmin window. Tier 4 hits were classified as compounds that hit only in the CMPD window, CMPDslope or CMPDmaxmin. Hit selection was further narrowed using the criterion that their signal must return to near baseline values before entering the glutamate add window.
VSD concentration response curves (CRCs): After the above counter-screens, compounds that remained positive were moved forward to collect complete CRCs for A2R-stg and A2R-C3 cell lines. This assay was carried out in the same way as the VSD screening assay except a 10-point concentration curve, from 40 μM to 10 nM, was plated in triplicate for each compound on a single 384-well plate. Data were summarized by plotting them as %max GLUslope against log [compound] that was fit to a four-parameter logistical model. %max GLUslope is defined as a normalized GLUslope expressed as a percentage of the mean maximum GLUslope, defined as 100, where background mean vehicle control (VHLslope) were subtracted from both values on a per plate basis. Thus, %max GLU slope = (GLUslope-mean VHLslope/mean maxGLUslope-mean VHLslope).

GluA2flip(Q) (A2Q cells) = target: T3, GluA2flip(Q) (A2Q cells) (Homo sapiens, UniProt P42262); experiment: Calcium flux (Fluo-8) compound CRC assay on A2Q cells; assay type: cell-based
T3 construct: FLAG (C); expressed in transfected cells
T3 sequence (P42262 25-883 isoform P42262-2 limits assumed): as the sequence (P42262 25-883 isoform P42262-2 limits assumed) above

[4] = target: T1, tethered GluA2flip(Q)-stargazin (A2Q-stg cells); experiment: Calcium flux (Fluo-8) compound CRC assay on A2Q-stg cells
Source text: (§4) Cell lines used in the calcium flux assay were GluA2flip(Q)-FLAG + GSG1L-1D4 pTREt-Va dual expression in TetON HEK cell clone #20 (A2Q-GSG), GluA2flip(Q)-FLAG + CNIH3-1D4 pTREt-Va dual expression in TetON HEK cell clone #8 (A2Q-C3), GluA2flip(Q)-FLAG pTREt-Va in TetON HEK cell clone #5 (A2Q), and tethered GluA2flip(Q)-FLAG-stargazin [28] in pTREt-Va dual expression in TetON HEK cell clone #13 (A2Q-stg) (Summarized in Table 1).
(§5) Compounds that were selected as hits using the VSD assay were subsequently screened against the calcium permeable A2Q-stg and A2Q-C3 cell lines in a glutamate potency fold-shift assay using the calcium sensing dye Fluo-8 (AAT Bioquest cat #21080). This assay is used to measure how pretreatment with compounds shifts the EC50 of glutamate on A2Q-stg and A2Q-C3 cells. 30 μM of each compound was pre-incubated with the cells for 120 secs and then an 11-point glutamate CRC from 4 mM to 10 pM was applied to the cells for 180 sec. […] Greiner 384-pp round-bottom plates containing glutamate solutions were dispensed by hand using a multi-channel pipet at 5X final concentration. […] Sodium butyrate and DOX were added to the cells at 1 mM and 5 μg/mL, respectively, 24 hours before screening. A2Q-stg cells were induced with 10 μg/mL DOX. Cells were incubated O/N and washed 4 times in low calcium buffer on an ELX405CW liquid aspirator and dispenser (BioTek). Buffer was left in the wells and an equal amount of 4.6 μM (2X) Fluo-8 (AAT Bioquest cat #21080) solution with 2.5 mM probenecid was added and incubated on the cells at room temperature for 40 minutes. Probenecid was added to block dye efflux from the cells [29]. Dye was washed off with low calcium buffer using the ELX405CW (BioTek) and plates were immediately inserted into the FDSS (Hamamatsu). Fluorescence signal was collected at 1 Hz using Ex. 480±20 nm/Em. 540±40 nm. Baseline signal was collected for 10 seconds followed by addition of 20 μl of 2X compound for a final concentration of 30 μM. After 290 seconds, 10 μl of a 5X glutamate solution in high calcium buffer (10 mM HEPES, pH 7.4, 140 mM NaCl, 5 mM KCl, 1 mM MgCl2, 9 mM CaCl2, and 10 mM glucose) was added for 180 seconds.
These compound CRCs were applied to the cells 2 minutes before a 1mM glutamate stimulation. […] Normalized FDSS traces were curve fit to CRCs using the initial GLUslope (GLUslope1) in a 3–6 sec window after glutamate application. […]
Cells were loaded with Fluo-8 and excess dye was washed out. […] We measured GLUslope in three consecutive time windows, referred to as GLUslope1-3, because three phases were clearly detectable (Fig 4C). The final CRC curves were calculated from GLUslope1, obtained from the first 3–6 sec window.
The final compound CRC curves were calculated from GLUslope1. […]

[5] = target: GluA2flip(R)-CNIH3 (A2R-C3 TetON HEK293 cells) (Homo sapiens, UniProt P42262, Q607R); experiment: VSD assay (counter-screen, CRC) on A2R-C3 cells; details: for concentration at which PAM/NAM activity is evident in raw VSD traces, A2R-C3: raw VSD data
Chain of GluA2flip(R)-CNIH3 (A2R-C3 TetON HEK293 cells) (P42262 25-883 isoform P42262-2 Q607R limits assumed): as the sequence (P42262 25-883 isoform P42262-2 limits assumed) above, with Q583R counted along it
Chain of GluA2flip(R)-CNIH3 (A2R-C3 TetON HEK293 cells) (Q8TBE1 whole entry partner): as the sequence (Q8TBE1 whole entry partner) above
Source text: Cell lines used in the VSD assays were TetON HEK293 cells. This was the parental cell line for all stable cell lines created. We used GluA2flip(R) TetON HEK cell clone #4 that doxycycline (DOX) dependently expresses GluA2flip(R) (A2R). The A2R cells were used as the base cell line to derive cell lines that co-express auxiliary subunits.
as §3
This assay was carried out in the same way as the VSD screening assay except a 10-point concentration curve, from 40 μM to 10 nM, was plated in triplicate for each compound on a single 384-well plate. Data were summarized by plotting them as %max GLUslope against log [compound] that was fit to a four-parameter logistical model. %max GLUslope is defined as a normalized GLUslope expressed as a percentage of the mean maximum GLUslope, defined as 100, where background mean vehicle control (VHLslope) were subtracted from both values on a per plate basis. Thus, %max GLU slope = (GLUslope-mean VHLslope/mean maxGLUslope-mean VHLslope).

[6] = target: GluA2flip(Q)-GSG1L (A2Q-GSG cells) (Homo sapiens, UniProt P42262); experiment: Calcium flux (Fluo-8) compound CRC assay on A2Q-GSG cells
Chain of GluA2flip(Q)-GSG1L (A2Q-GSG cells) (P42262 25-883 isoform P42262-2 limits assumed): as the sequence (P42262 25-883 isoform P42262-2 limits assumed) above
Chain of GluA2flip(Q)-GSG1L (A2Q-GSG cells) (Q6UXU4 whole entry partner): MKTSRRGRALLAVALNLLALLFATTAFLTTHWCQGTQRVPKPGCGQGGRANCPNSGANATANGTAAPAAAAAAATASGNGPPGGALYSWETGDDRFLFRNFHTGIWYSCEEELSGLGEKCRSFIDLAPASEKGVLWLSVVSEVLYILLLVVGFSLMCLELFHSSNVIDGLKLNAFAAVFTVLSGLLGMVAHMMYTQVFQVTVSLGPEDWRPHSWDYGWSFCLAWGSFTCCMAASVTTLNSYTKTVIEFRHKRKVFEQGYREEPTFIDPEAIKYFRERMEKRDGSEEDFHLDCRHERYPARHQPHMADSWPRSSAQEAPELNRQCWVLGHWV
Source text: as §4, §5
(§6) These compound CRCs were applied to the cells 2 minutes before a 1mM glutamate stimulation. […] Normalized FDSS traces were curve fit to CRCs using the initial GLUslope (GLUslope1) in a 3–6 sec window after glutamate application. CRCs were also plotted for the traces’ area under the curve (AUC) in the GLUmaxmin window. […] Compounds were plotted as %max GLUslope against log [compound] and fit to a four-parameter logistical model as in the VSD.
(§7) Cells were loaded with Fluo-8 and excess dye was washed out. After 120 secs of pre-incubation with compound at concentrations ranging from 30 μM to 30 nM (Fig 4Bi), 1 mM glutamate was added (Fig 4Bii). In the calcium assay, 250 μM was used as the maxGLU dose because the GLUslope1 values decreased at higher concentrations of glutamate, making it the dose with the maximal GLUslope1 response. […] We measured GLUslope in three consecutive time windows, referred to as GLUslope1-3, because three phases were clearly detectable (Fig 4C). The final CRC curves were calculated from GLUslope1, obtained from the first 3–6 sec window.
(§8) The final compound CRC curves were calculated from GLUslope1. […] The AUC measures the accumulation of calcium instead of gating and sometimes produced a CRC fit when GLUslope1 could not derive an EC50 value.

[7] = target: T2, GluA2flip(Q)-CNIH3 (A2Q-C3 cells); experiment: Calcium flux (Fluo-8) compound CRC assay on A2Q-C3 cells
Source text: as §4, §5, §6, §7, §8

[8] = target: T4, GluA2flip(R) (A2R TetON HEK293 cells) (Homo sapiens, UniProt P42262, Q607R); experiment: VSD counter-screen on A2R cells; assay type: cell-based; details: 10 μM compound
T4 construct: expressed in transfected cells
T4 sequence (P42262 25-883 isoform P42262-2 Q607R limits assumed): as the sequence (P42262 25-883 isoform P42262-2 limits assumed) above, with Q583R counted along it

GluA2flip(R) (A2R cells) = target: T5, GluA2flip(R) (A2R cells) (Homo sapiens, UniProt P42262, Q607R); experiment: Whole-cell electrophysiology with fast ligand application, A2R cells; assay type: cell-based; details: 40 μM compound
T5 construct: expressed in transfected cells
T5 sequence (P42262 25-883 isoform P42262-2 Q607R limits assumed): as the sequence (P42262 25-883 isoform P42262-2 limits assumed) above, with Q583R counted along it
Method: (§2) A2R-stg cells were plated on HNO3 washed coverslips coated with 1:20000 poly-d-lysine (incubated for 20 min, washed with PBS 2x and media 1x) for 2 hours. They were induced with 5 μg/mL DOX for 24 hours before recording. A2R cells were plated on 1:60000 poly-d-lysine for 2 hours and induced with 7.5 μg/mL DOX for 30 hours before recording. The cells were lifted from the coverslip after whole cell configuration was achieved and brought in front of the theta tubing. […] Recording was done using a single channel of a Multiclamp700B Amplifier (Axon Instruments) operated by pClamp10 software. Signals were digitized using Digidata1440A (Axon Instruments) at a sampling rate of 50 kHz and low pass filtered at 2kHz. Borosilicate glass capillaries (O.D. 1.5 mm, I.D. 0.86 mm, Sutter) were pulled to manufacture electrodes with pipette resistances of 3.5–5 MΩ.
Standard solution without ligand was the external solution. The ligand solution contained 1mM glutamate in external solution, supplemented with 2mM glucose and 3mM NaCl to facilitate visualizing the interface of the two solutions and recording liquid junction potential after breaking the patch. The 10–90% rise time of liquid junction potential was around 300μsec. VU0627849 was dissolved in external solution containing 1 mM glutamate to a final concentration of 40 μM. […]

[9] = target: T6, GluA2flip(R)-stargazin (A2R-stg cells) (Homo sapiens, UniProt P42262, Q607R); experiment: Whole-cell electrophysiology with fast ligand application, A2R-stg cells; assay type: cell-based; details: 40 μM compound
T6 construct: expressed in transfected cells
T6 sequence (P42262 25-883 isoform P42262-2 Q607R limits assumed): as the sequence (P42262 25-883 isoform P42262-2 limits assumed) above, with Q583R counted along it
T6 sequence (Q9Y698 whole entry partner): as the sequence (Q9Y698 whole entry partner) above
Method: as §2
Standard solution without ligand was the external solution. The ligand solution contained 1mM glutamate in external solution, supplemented with 2mM glucose and 3mM NaCl to facilitate visualizing the interface of the two solutions and recording liquid junction potential after breaking the patch. The 10–90% rise time of liquid junction potential was around 300μsec. VU0627849 was dissolved in external solution containing 1 mM glutamate to a final concentration of 40 μM. Tips of the tubing for each solution were positioned immediately before the opening of one compartment of the theta tubing. Drug-containing and drug-free glutamate solutions were switched using a manual valve located between the solution reservoir and theta glass tube. Solution speed was adjusted by the height of the reservoir using gravity.
We have conducted a preliminary electrophysiological investigation of the compound VU0627849. Using a fast ligand application system, A2R and A2R-stg cells were stimulated with 1mM glutamate using a 100 ms pulse followed by a 50 ms interval and a second 20 ms pulse to evaluate recovery from desensitization (Fig 10A and 10B red traces). […] These effects are drug specific because wash out of VU0627849 restored the original current (Fig 10B, black trace). We also see a small effect on A2R cells that was not seen in the VSD assay (Fig 10A blue trace). VU0627849 acted as a PAM on A2R-stg cells, corroborating our HTS data from the VSD assay.

T1 sequence (P19491 22-883): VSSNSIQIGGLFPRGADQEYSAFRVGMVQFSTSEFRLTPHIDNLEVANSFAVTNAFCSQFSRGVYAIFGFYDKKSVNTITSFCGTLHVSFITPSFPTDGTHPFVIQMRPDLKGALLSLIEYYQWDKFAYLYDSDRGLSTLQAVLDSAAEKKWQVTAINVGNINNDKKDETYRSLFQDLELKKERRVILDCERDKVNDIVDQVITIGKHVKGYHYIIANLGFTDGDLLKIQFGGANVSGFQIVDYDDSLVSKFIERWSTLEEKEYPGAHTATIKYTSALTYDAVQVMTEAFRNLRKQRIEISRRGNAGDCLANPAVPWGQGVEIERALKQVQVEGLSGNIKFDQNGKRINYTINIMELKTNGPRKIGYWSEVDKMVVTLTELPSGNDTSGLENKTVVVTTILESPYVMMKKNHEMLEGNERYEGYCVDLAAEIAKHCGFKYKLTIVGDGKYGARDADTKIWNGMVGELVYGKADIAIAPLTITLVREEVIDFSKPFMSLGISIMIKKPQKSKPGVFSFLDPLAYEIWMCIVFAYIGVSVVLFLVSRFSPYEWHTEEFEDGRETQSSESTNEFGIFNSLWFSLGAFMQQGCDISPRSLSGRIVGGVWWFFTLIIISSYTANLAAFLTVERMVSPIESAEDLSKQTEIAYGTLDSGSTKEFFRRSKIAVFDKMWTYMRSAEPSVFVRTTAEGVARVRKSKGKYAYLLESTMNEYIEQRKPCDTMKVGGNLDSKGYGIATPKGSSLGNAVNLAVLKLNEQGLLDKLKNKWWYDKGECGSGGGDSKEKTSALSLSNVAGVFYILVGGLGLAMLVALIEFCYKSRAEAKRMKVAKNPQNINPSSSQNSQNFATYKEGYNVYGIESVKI
T1 sequence (Q71RJ2 whole entry partner): as the sequence (Q9Y698 whole entry partner) above, with I257V, E306D, N307S, S313A counted along it

PAM/NAM categorisation in glutamate potency fold-shift assay, A2Q-stg [1] | PAM/NAM categorisation in glutamate potency fold-shift assay, A2Q-C3 [2] | EC50 [3] [µM] | PAM/NAM activity in VSD assay, A2R-stg [3] | PAM/NAM activity in calcium flux CRC assay, A2Q (GluA2flip(Q) (A2Q cells)) | PAM/NAM activity in calcium flux CRC assay, A2Q-stg [4] | IC50 [5] [µM] | PAM/NAM activity in VSD assay, A2R-C3 [5] | PAM/NAM activity in calcium flux CRC assay, A2Q-GSG [6] | PAM/NAM activity in calcium flux CRC assay, A2Q-C3 [7] | concentration at which PAM/NAM activity is evident in raw VSD traces, A2R-stg [3] | concentration at which PAM/NAM activity is evident in raw VSD traces, A2R-C3 [5] | SMILES | other results
NAM | NAM | 4.2 | PAM | Slight NAM activity | Slight NAM activity | 3.2 | NAM | PAM | slight decrease in signal |  |  | COc1ccccc1CC(=O)NC1(c2nc(-c3ccsc3)no2)CCCCC1 [VU0539491] | 
right-shifts | right-shifts |  | NAM |  | negative trend | 0.87 | NAM |  |  | submicromolar | higher than 1 μM | CCCc1c(C(=O)NC2CCCCC2)nnn1-c1ccccc1 [VU0612951] | IC50 [3]: 1.5 µM; decrease in %max GLUslope across the CRC, A2R-stg ([3]; VSD CRC 40 μM to 10 nM): ~ 40%; decrease in %max GLUslope across the CRC, A2R-C3 ([5]; VSD CRC 40 μM to 10 nM): ~ 40%
 |  | 0.86 | PAM | PAM | PAM |  | PAM | PAM | PAM | ≥ 2.5 µM | ≥ 2.5 µM | O=C(Cc1cc(-c2ccc3c(c2)OCCO3)on1)NCc1ccccc1 [VU0627849] | EC50 (GluA2flip(Q) (A2Q cells); CRC from GLUslope1, 1 mM glutamate, PAM, read-out: EC50 Ca2+ Sensing, A2Q): 14.1 µM; positive change in %max GLUslope, A2Q (GluA2flip(Q) (A2Q cells); across calcium flux CRC): > 80%; Activity on A2R cells in counter-screens [8]: did not show any activity; increase in response of A2Q-stg cells ([4]; 7.5 and 30 μM compound): ~ 300 arbitrary fluorescence units (AFU); EC50 [5]: 0.85 µM; EC50 [6]: 24.9 µM; positive change in %max GLUslope, A2Q-GSG ([6]; across calcium flux CRC): > 80%; EC50 [7]: 3.1 µM; positive change in %max GLUslope, A2Q-C3 ([7]; across calcium flux CRC): > 80%; effect on A2R cells in electrophysiology (GluA2flip(R) (A2R cells)): small effect; PAM/NAM activity in electrophysiology, A2R-stg [9]: PAM; change in peak amplitude ([9]; 1 mM glutamate 100 ms pulse, preliminary): no change; amplitude in the second pulse of glutamate ([9]; second 20 ms pulse after 50 ms interval, preliminary): increased amplitude; resensitization ([9]; within 10 ms following initial activation and desensitization, preliminary): delayed increase in resensitization

— publication PMC5373622, “Screening for AMPA receptor auxiliary subunit specific modulators” (PLoS ONE, 2017)
